Source: US20220380374A1, “1,4-DIHYDROBENZO[D]PYRAZOLO[3,4-F][1,3]DIAZEPINE DERIVATIVES AND RELATED COMPOUNDS AS LRRK2, NUAK1 AND/OR TYK2 KINASE MODULATORS FOR THE TREATMENT OF E.G. AUTOIMMUNE DISEASE” (Origenis GMBH, priority 2019, published 2022)
pIC50: −log10 of the molar value.

Columns and labels:
[1] = target: T1, wt human NUAK1, full length (Homo sapiens, UniProt O60285); assay: TR-FRET LanthaScreen Eu Kinase Binding Assay, NUAK1; settings: 5 nM Kinase Tracer 236; read-out: IC50, inhibitory activity toward NUAK1
T1 construct: 8 nM wt human NUAK1, full length (ThermoFisher/USA); purchased ThermoFisher/USA
T1 sequence (O60285 1-661): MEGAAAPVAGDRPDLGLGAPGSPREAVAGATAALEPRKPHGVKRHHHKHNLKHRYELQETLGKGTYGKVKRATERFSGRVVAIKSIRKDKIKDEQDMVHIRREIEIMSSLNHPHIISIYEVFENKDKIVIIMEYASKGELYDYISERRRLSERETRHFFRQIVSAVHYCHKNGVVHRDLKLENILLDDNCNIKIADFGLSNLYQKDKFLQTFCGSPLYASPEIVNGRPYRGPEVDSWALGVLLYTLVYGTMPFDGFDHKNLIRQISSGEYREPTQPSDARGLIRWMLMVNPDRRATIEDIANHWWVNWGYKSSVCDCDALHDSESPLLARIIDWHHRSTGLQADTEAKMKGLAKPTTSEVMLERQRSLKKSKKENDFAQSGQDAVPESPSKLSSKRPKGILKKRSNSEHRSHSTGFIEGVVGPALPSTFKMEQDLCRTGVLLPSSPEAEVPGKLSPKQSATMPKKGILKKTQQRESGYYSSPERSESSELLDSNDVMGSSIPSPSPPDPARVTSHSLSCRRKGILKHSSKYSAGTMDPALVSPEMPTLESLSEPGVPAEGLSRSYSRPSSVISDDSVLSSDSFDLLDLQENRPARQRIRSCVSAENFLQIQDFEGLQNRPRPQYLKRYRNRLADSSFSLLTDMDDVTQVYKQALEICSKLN
Summary of the method: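 TR-FRET tracer-displacement binding with 8 nM full-length wild-type human NUAK1, 2 nM Eu-anti-His antibody and 5 nM Kinase Tracer 236 in 1× Kinase Buffer A (final). Compound, kinase/antibody and tracer incubated 1 h at room temperature; emission ratios analysed per kit protocol.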

[2] = target: T2, wt human TYK2, catalytic site (Homo sapiens, UniProt P29597); assay: HTRF KinEASE assay, TYK2; assay type: biochemical; settings: 1 μM ATP; read-out: IC50, inhibitory activity toward TYK2
T2 construct: 2 nM wt human TYK2, catalytic site (SignalChem/CAN); purchased SignalChem/CAN
T2 sequence (P29597 897-1176 limits assumed): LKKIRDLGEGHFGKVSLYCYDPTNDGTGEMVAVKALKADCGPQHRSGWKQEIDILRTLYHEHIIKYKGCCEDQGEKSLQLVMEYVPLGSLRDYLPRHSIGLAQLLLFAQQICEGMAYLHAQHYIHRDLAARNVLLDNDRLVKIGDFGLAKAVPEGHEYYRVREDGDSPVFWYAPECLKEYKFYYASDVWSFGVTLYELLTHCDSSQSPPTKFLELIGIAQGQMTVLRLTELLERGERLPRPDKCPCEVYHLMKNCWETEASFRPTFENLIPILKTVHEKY
Summary of the method: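 2 nM wt human TYK2 catalytic domain with 1 μM biotinylated TK substrate and 1 μM ATP in 1× kinase buffer was incubated ≥30 min at room temperature. Antibody and streptavidin-XL665 were added, and HTRF emission ratios were read after 60 min.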

SMILES	pIC50 [1]	pIC50 [2]
Cc1ccc2c(c1)-c1[nH]ncc1NC(c1c(Cl)ccc(Br)c1F)=N2 [Compound 184, 5-(3-bromo-6-chloro-2-fluorophenyl)-9-methyl-1,4-dihydrobenzo [d]pyrazolo[3,4-f][1,3]diazepine]	7.00 to 8.00	6.00 to 7.00
Fc1cccc(Cl)c1C1=Nc2cnc(Cl)cc2-c2n[nH]cc2N1 [Compound 190, 9-chloro-5-(2-chloro-6-fluorophenyl)-2,4-dihydropyrazolo[4,3-d]pyrido[4,3-f][1,3]diazepine]	7.00 to 8.00	7.00 to 8.00
Fc1cc(F)c(C2=Nc3ccc(Cl)cc3-c3n[nH]cc3N2)c(F)c1 [Compound 194, 9-chloro-5-(2,4,6-trifluorophenyl)-2,4-dihydrobenzo[d]pyrazolo[3,4-f][1,3]diazepine]	7.00 to 8.00	6.00 to 7.00
Fc1cccc(F)c1C1=Nc2cnc(OC(F)F)cc2-c2n[nH]cc2N1 [Compound 197, 9-(difluoromethoxy)-5-(2,6-difluorophenyl)-2,4-dihydropyrazolo[4,3-d]pyrido[4,3-f][1,3]diazepine]	7.00 to 8.00	7.00 to 8.00
O=C(O)c1cc2c(cc1Cl)-c1[nH]ncc1N=C(c1c(F)cccc1F)N2 [Compound 198, 9-chloro-5-(2,6-difluorophenyl)-1,6-dihydrobenzo[d]pyrazolo[3,4-f][1,3]diazepine-8-carboxylic acid]	6.00 to 7.00	7.00 to 8.00
CCNC(=O)c1cc2c(cc1Cl)-c1n[nH]cc1N=C(c1c(F)cccc1F)N2 [Compound 200, 9-chloro-5-(2,6-difluorophenyl)-N-ethyl-2,6-dihydrobenzo[d]pyrazolo[3,4-f][1,3]diazepine-8-carboxamide]	7.00 to 8.00	7.00 to 8.00
CC(C)(C)NC(=O)c1cc2c(cc1Cl)-c1n[nH]cc1N=C(c1c(F)cccc1F)N2 [Compound 201, N-(tert-butyl)-9-chloro-5-(2,6-difluorophenyl)-2,6-dihydrobenzo[d]pyrazolo[3,4-f][1,3]diazepine-8-carboxamide]	6.00 to 7.00	7.00 to 8.00
CCNC(=O)c1cc2c(cc1F)-c1n[nH]cc1N=C(c1c(F)cccc1F)N2 [Compound 211, 5-(2,6-difluorophenyl)-N-ethyl-9-fluoro-2,6-dihydrobenzo[d]pyrazolo[3,4-f][1,3]diazepine-8-carboxamide]	7.00 to 8.00	7.00 to 8.00
CN1CCN(c2ncc3c(n2)N=C(c2c(F)cccc2F)Nc2c[nH]nc2-3)CC1 [Compound 219]	6.00 to 7.00	7.00 to 8.00
Fc1cc2c(cc1OC1CCOCC1)N=C(c1c(Cl)cccc1Cl)Nc1c[nH]nc1-2 [Compound 222, 5-(2,6-dichlorophenyl)-9-fluoro-8-((tetrahydro-2H-pyran-4-yl)oxy)-2,4-dihydrobenzo[d]pyrazolo[3,4-f][1,3]diazepine]	6.00 to 7.00	> 8.00
Fc1cc2c(cc1-c1cccnn1)N=C(c1c(Cl)cccc1Cl)Nc1c[nH]nc1-2 [Compound 227, 5-(2,6-dichlorophenyl)-9-fluoro-8-(pyridazin-3-yl)-2,4-dihydrobenzo[d]pyrazolo[3,4-f][1,3]diazepine]	6.00 to 7.00	7.00 to 8.00
Fc1cc2c(cc1-c1cccnn1)N=C(c1c(F)cccc1Cl)Nc1c[nH]nc1-2 [Compound 228, 5-(2-chloro-6-fluorophenyl)-9-fluoro-8-(pyridazin-3-yl)-2,4-dihydrobenzo[d]pyrazolo[3,4-f][1,3]diazepine]	7.00 to 8.00	> 8.00
Fc1cc2c(cc1-c1ccnnc1)N=C(c1c(Cl)cccc1Cl)Nc1c[nH]nc1-2 [Compound 229, 5-(2,6-dichlorophenyl)-9-fluoro-8-(pyridazin-4-yl)-2,4-dihydrobenzo[d]pyrazolo[3,4-f][1,3]diazepine]	6.00 to 7.00	> 8.00

Next, values leading:

pIC50 [1]	pIC50 [2]	SMILES
7.00 to 8.00	6.00 to 7.00	Cc1ccc2c(c1)-c1[nH]ncc1NC(c1c(Cl)ccc(F)c1F)=N2 [Compound 186, 5-(6-chloro-2,3-difluorophenyl)-9-methyl-1,4-dihydrobenzo[d]pyrazolo[3,4-f][1,3]diazepine]
7.00 to 8.00	7.00 to 8.00	O=C(NCC(F)(F)F)c1cc2c(cc1Cl)-c1n[nH]cc1N=C(c1c(F)cccc1F)N2 [Compound 202, 9-chloro-5-(2,6-difluorophenyl)-N-(2,2,2-trifluoroethyl)-2,6-dihydrobenzo[d]pyrazolo[3,4-f][1,3]diazepine-8-carboxamide]
7.00 to 8.00	6.00 to 7.00	Fc1cc(F)c(C2=Nc3cn[nH]c3-c3cc(F)ccc3N2)c(F)c1 [Compound 203, 9-fluoro-5-(2,4,6-trifluorophenyl)-1,6-dihydrobenzo[d]pyrazolo[3,4-f][1,3]diazepine]
7.00 to 8.00	7.00 to 8.00	Fc1cccc(F)c1C1=Nc2cn[nH]c2-c2cc3c(cc2N1)OCO3 [Compound 210, 5-(2,6-difluorophenyl)-1,6-dihydro-[1,3]dioxolo[4′,5′:4,5]benzo[1,2-d]pyrazolo[3,4-f][1,3]diazepine]
6.00 to 7.00	6.00 to 7.00	Fc1ccc2c(c1)-c1n[nH]cc1NC(c1c(F)cc(OC(F)(F)F)cc1F)=N2 [Compound 214, 5-(2,6-difluoro-4-(trifluoromethoxy)phenyl)-9-fluoro-2,4-dihydrobenzo[d]pyrazolo[3,4-f][1,3]diazepine]
7.00 to 8.00	6.00 to 7.00	Fc1ccc2c(c1)-c1[nH]ncc1N=C(c1c(F)cc(OC(F)F)cc1F)N2 [Compound 215, 5-(4-(difluoromethoxy)-2,6-difluorophenyl)-9-fluoro-1,6-dihydrobenzo[d]pyrazolo[3,4-f][1,3]diazepine]
7.00 to 8.00	7.00 to 8.00	O=C(NCCF)c1cc2c(cc1F)-c1n[nH]cc1N=C(c1c(F)cccc1F)N2 [Compound 216, 5-(2,6-difluorophenyl)-9-fluoro-N-(2-fluoroethyl)-2,6-dihydrobenzo[d]pyrazolo[3,4-f][1,3]diazepine-8-carboxamide]
6.00 to 7.00	6.00 to 7.00	Cc1ccc2c(c1)-c1n[nH]cc1NC(c1c(F)ccc(C(F)(F)F)c1F)=N2 [Compound 217, 5-(2,6-difluoro-3-(trifluoromethyl)phenyl)-9-methyl-2,4-dihydrobenzo[d]pyrazolo[3,4-f][1,3]diazepine]
7.00 to 8.00	7.00 to 8.00	Nc1ncc2c(n1)N=C(c1c(F)cccc1F)Nc1c[nH]nc1-2 [Compound 218, 5-(2,6-difluorophenyl)-2,4-dihydropyrazolo[4,3-d]pyrimido[5,4-f][1,3]diazepin-8-amine]
6.00 to 7.00	7.00 to 8.00	Fc1cc2c(cc1OC1CCOCC1)N=C(c1c(F)cccc1F)Nc1c[nH]nc1-2 [Compound 220, 5-(2,6-difluorophenyl)-9-fluoro-8-((tetrahydro-2H-pyran-4-yl)oxy)-2,4-dihydrobenzo[d]pyrazolo[3,4-f][1,3]diazepine]
6.00 to 7.00	> 8.00	Fc1cc2c(cc1OC1CCOCC1)N=C(c1c(F)cccc1Cl)Nc1c[nH]nc1-2 [Compound 221, 5-(2-chloro-6-fluorophenyl)-9-fluoro-8-((tetrahydro-2H-pyran-4-yl)oxy)-2,4-dihydrobenzo[d]pyrazolo[3,4-f][1,3]diazepine]
6.00 to 7.00	7.00 to 8.00	Fc1cc2c(cc1OC1CCOCC1)N=C(c1c(F)cccc1C(F)(F)F)Nc1c[nH]nc1-2 [Compound 223, 9-fluoro-5-(2-fluoro-6-(trifluoromethyl)phenyl)-8-((tetrahydro-2H-pyran-4-yl)oxy)-2,4-dihydrobenzo[d]pyrazolo[3,4-f][1,3]diazepine]
7.00 to 8.00	7.00 to 8.00	Fc1cc2c(cc1-c1cccnn1)N=C(c1c(F)cccc1F)Nc1c[nH]nc1-2 [Compound 225, 5-(2,6-difluorophenyl)-9-fluoro-8-(pyridazin-3-yl)-2,4-dihydrobenzo[d]pyrazolo[3,4-f][1,3]diazepine]
> 8.00	> 8.00	Fc1cc2c(cc1-c1ccnnc1)N=C(c1c(F)cccc1F)Nc1c[nH]nc1-2 [Compound 226, 5-(2,6-difluorophenyl)-9-fluoro-8-(pyridazin-4-yl)-2,4-dihydrobenzo[d]pyrazolo[3,4-f][1,3]diazepine]
